According to patent publication US11466011B2, “Compounds and their use as inhibitors of N-myristoyl transferase” (Imperial College Innovations Limited, priority 2015, dated 2022):
Counter-ions that a name gives are not always drawn.

Experiments:
[1] = biological target: Leishmania donovani (Ld) N-myristoyl transferase (Leishmania donovani, UniProt D0AB09); assay: Fluorescence-based NMT assay (a), adapted version, LdNMT; type: biochemical
HRV16 [2] = assay: Rhinovirus production assay (e), virus titre (TCID50); type: cell-based, human HeLa Ohio cell line; details: Enterovirus
Experimental: Example 30 of the invention was tested for activity in an in vitro rhinovirus production assay using the human HeLa Ohio cell line. Compounds having activity in inhibiting rhinovirus production in the assay are expected to be useful as agents for preventing and/or treating asthma or chronic obstructive pulmonary disease (COPD), by virtue of being inhibitors of human NMT1 and/or NMT2, which are thought to myristoylate rhinovirus capsid subunit VP4 and be essential for virus assembly. Hela Ohio cells were grown in growth media (DMEM supplemented with 10% FBS, 1% Sodium Bicarbonate and 25 mM Hepes) and seeded 24 h prior to infection in a 12-well plate at a cell density allowing to obtain 100% confluent cells (5.95×10^5 cells per well) the next day. Confluent cells were treated with different concentrations of inhibitor, as indicated in the table below, each in triplicate. The Example 30 inhibitor solution was prepared by serial dilutions in growth media and the DMSO control contained the same percentage of DMSO as in the solution with the highest concentration of inhibitor. […] Cells were then infected with HRV16 at an MOI of 1 in the presence of the inhibitor. The virus stock (2.492×10^7 PFU/ml) was diluted in growth media to obtain a virus solution at 5.95×10^5 PFU/ml. This virus dilution was used to dilute the inhibitor as previously described in order to obtain virus solutions with the inhibitor concentrations indicated in the table below. The cell media was as replaced by 1 ml per well of virus+inhibitor solution and the plate was incubated for 1 h at room temperature to allow virus adsorption onto the cells. The cells were then washed with PBS and the media was replaced with 1 ml per well of growth media+inhibitor, prepared as previously described. […] The media and cells form each well were then transferred to 1.5 ml tubes and centrifuged for 1 min at 16000×g to remove cell debris. The virus titres from the cleared supernatants were determined by measuring the 50% Tissue Culture Infective Dose (TCID50). Each sample was diluted in a series of 10-fold dilutions in TCID50 media (DMEM supplemented with 2% FBS, 1% Sodium Bicarbonate, 25 mM Hepes and 1% Penicillin-Streptomycin) and 50 μl of each of the dilutions 1/10 to 1/10^−8 were added onto a 96-well plate, in 6 replicates. HeLa Ohio cells at a cell density of 1×10^5 cells/ml in TCID50 media were then added to each well (150 μl per well). Some wells with cells alone (without sample) were included as control. […] The appearance of characteristic cytopathic effect, compared to control cells, was then assessed by observation of the plates on an inverted microscope and the virus titres were subsequently calculated by the method of Reed and Muench.

HRV16 [3] = assay: Rhinovirus production assay 2 (f), virus-induced cytopathic effect; type: cell-based, human HeLa Ohio cell line; details: 2 days post-infection, HeLa Ohio cells
Experimental: Examples 30, 35, 49 and 50 of the invention was tested for activity in a rhinovirus replication assay in the human HeLa Ohio cell line. Compounds having activity in inhibiting rhinovirus production in the assay are expected to be useful as agents for preventing and/or treating asthma or chronic obstructive pulmonary disease (COPD), by virtue of being inhibitors of human NMT1 and/or NMT2, which are thought to myristoylate rhinovirus capsid subunit VP4 and be essential for virus assembly. HeLa Ohio cells were grown in growth media (DMEM supplemented with 10% FBS, 1% Sodium Bicarbonate and 25 mM Hepes) and seeded 24 hours prior to infection in a 96-well plate at a cell density allowing to obtain 100% confluent cells (5.6×10^4 cells per well) the next day. Confluent cells were infected with HRV16 at an MOI of 0.05 in the presence of different concentrations of inhibitor, as indicated in the table below, each in duplicate. The virus stock (5.6×10^6 PFU/ml) was diluted in growth media to obtain a virus solution at 1.4×10^4 PFU/ml. This virus dilution was used to dilute the inhibitor by serial dilutions in order to obtain virus solutions with the inhibitor concentrations indicated in the table below. The DMSO control contained the same percentage of DMSO as in the solution with the highest concentration of inhibitor.

HeLa Ohio cells = assay: Cell viability of inhibitor-treated uninfected cells (assay (f)); details: MTS 2 days post-treatment
HeLa and/or BL-41 cells = assay: Metabolic activity assay (MTS assay) (d), HeLa and/or BL-41; type: cell-based; details: Homo sapiens, 72 h
Experimental: Example NMT inhibitors of the invention were tested for activity in an in vitro metabolic activity assay using human cell lines (HeLa and BL-41). Compounds having activity in inhibiting metabolic activity in the assay are expected to be useful as agents for preventing and/or treating cancer, by virtue of being inhibitors of human NMT1 and/or NMT2.
Hela cells were grown in DMEM media (supplemented with 10% FBS) and seeded in a 96-well plate 24 h prior to treatment. BL-41 cells were grown in RPMI-1640 media (supplemented with 10% FBS) and seeded directly before treatment. Cell suspensions were prepared by adjusting the cell density to the appropriate concentration (as stated in the table below) and 50 μL of the cell suspension was transferred to wells B-G in columns 2-11 of a 96-well plate.
100 μL of growth media containing 0.2% DMSO was added to wells B-G in columns 2 and 11 as positive controls and 100 μL of growth media containing Puromycin (3 μg/mL; final concentration in the plate 2 μg/mL) was added to wells B-G in column 3 as a negative control. 7 concentrations of inhibitor solution were prepared using example NMT inhibitors (same final percentage of DMSO, dilution factor=3 starting from 15 μM or 150 μM) and 100 μL of inhibitor solution was added to wells B-G in columns 4-10 (final concentration of example NMT inhibitor in the plate starting from 10 μM or 100 μM; total volume of the wells=150 μL).
After 72 h, 20 μL MTS reagent (Promega, prepared according to the supplier protocol) was added to each well of the 96-well plate. The plate was incubated at 37° C. (2 hours for HeLa cells and 4 hours for BL-41 cells) and absorbance was measured at 490 nm with a Spectra Max M2/M2e microplate reader. The average absorbance value of the negative control (Puromycin-treated cells) was subtracted from each value and the metabolic activity was calculated as a percentage relative to the positive control (DMSO-treated cells). EC50s were calculated using Grafit 7.0 (Erithacus Software Ltd, UK).

[4] = biological target: T1, Leishmania major (Lm) N-myristoyl transferase (Leishmania major, UniProt Q4Q5S8); assay: Fluorescence-based NMT assay (a), adapted version, LmNMT; type: biochemical
T1 sequence (Q4Q5S8 1-421): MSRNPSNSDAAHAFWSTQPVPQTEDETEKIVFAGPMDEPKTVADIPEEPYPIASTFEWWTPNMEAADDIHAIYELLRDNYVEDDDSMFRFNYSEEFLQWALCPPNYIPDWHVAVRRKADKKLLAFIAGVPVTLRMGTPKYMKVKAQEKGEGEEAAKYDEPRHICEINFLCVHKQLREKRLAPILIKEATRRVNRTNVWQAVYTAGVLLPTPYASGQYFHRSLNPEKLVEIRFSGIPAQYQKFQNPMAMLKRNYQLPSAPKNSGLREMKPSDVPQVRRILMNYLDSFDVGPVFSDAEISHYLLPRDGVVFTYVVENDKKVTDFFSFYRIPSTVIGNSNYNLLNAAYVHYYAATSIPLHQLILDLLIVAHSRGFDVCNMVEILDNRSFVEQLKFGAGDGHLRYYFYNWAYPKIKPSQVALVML

Leishmania donovani (Ld) N-myristoyl transferase, sequence (D0AB09 entry or part of it): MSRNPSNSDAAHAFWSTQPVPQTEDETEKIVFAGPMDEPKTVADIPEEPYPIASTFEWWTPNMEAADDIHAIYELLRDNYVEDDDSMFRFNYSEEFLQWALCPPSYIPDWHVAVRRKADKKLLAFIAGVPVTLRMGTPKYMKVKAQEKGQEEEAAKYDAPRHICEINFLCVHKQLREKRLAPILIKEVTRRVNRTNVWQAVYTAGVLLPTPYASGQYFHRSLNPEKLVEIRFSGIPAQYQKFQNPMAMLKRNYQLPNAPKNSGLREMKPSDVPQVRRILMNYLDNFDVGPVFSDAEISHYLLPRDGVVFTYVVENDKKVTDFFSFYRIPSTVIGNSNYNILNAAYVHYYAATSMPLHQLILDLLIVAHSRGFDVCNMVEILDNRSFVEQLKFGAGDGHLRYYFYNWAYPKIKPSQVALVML

| Structure (SMILES) | EC50 (HRV16 [2]) | EC50 (HeLa and/or BL-41 cells) | melting point | IC50 [1] | HRV16 production (virus-induced cytopathic effect, MTS) (HRV16 [3]) | cell viability of inhibitor-treated but uninfected cells (HeLa Ohio cells) | IC50 [4] |
| --- | --- | --- | --- | --- | --- | --- | --- |
| Cc1nn(C)c(C)c1CCOc1cc(F)ccc1-c1ccc2[nH]nc(CN(C)C)c2c1 [Example 7] | – | – | – | 1 to 100 nM | – | – | – |
| CN(C)Cc1n[nH]c2ccc(-c3ccc(F)cc3OCCc3cccnc3)cc12 [Example 8] | – | – | – | 1 to 100 nM | – | – | 1 to 100 nM |
| Cc1nn(C)c(C)c1CCOc1c(-c2ccc3c(c2)c(CN(C)C)nn3C)ccc(F)c1F [Example 49] | 10 to 100 nM | 1 to 100 nM | – | – | inhibit HRV16 production in a dose-dependent manner | without affecting cell viability | – |

Now from value to compound, other results behind:

| EC50 (HRV16 [2]) | EC50 (HeLa and/or BL-41 cells) | melting point | Structure (SMILES) | IC50 [1] | HRV16 production (virus-induced cytopathic effect, MTS) (HRV16 [3]) | cell viability of inhibitor-treated but uninfected cells (HeLa Ohio cells) | IC50 [4] |
| --- | --- | --- | --- | --- | --- | --- | --- |
| 10 to 100 nM | 1 to 100 nM | – | Cc1nn(C)c(C)c1CCOc1c(F)cccc1-c1ccc2c(c1)c(CN(C)C)nn2C [Example 30] | – | inhibit HRV16 production in a dose-dependent manner | without affecting cell viability | – |
| 10 to 100 nM | – | – | CNCc1nn(C)c2ccc(-c3cccc(F)c3OCCc3c(C)nn(C)c3C)cc12 [Example 35, 1-(5-(3-fluoro-2-(2-(1,3,5-trimethyl-1H-pyrazol-4-yl)ethoxy)phenyl)-1-methyl-1H-indazol-3-yl)-N-methylmethanamine] | – | inhibit HRV16 production in a dose-dependent manner | without affecting cell viability | – |
| – | – | 230 to 233 °C | Cc1nn(C)c(C)c1CCOc1cc(F)ccc1-c1ccc2c(c1)c(CN)nn2C (as salt: salt) [Example 31, (5-(4-fluoro-2-(2-(1,3,5-trimethyl-1H-pyrazol-4-yl)ethoxy)phenyl)-1-methyl-1H-indazol-3-yl)methanamine] | – | – | – | – |
| 10 to 100 nM | 1 to 100 nM | – | CNCc1nn(C)c2ccc(-c3ccc(F)c(F)c3OCCc3c(C)nn(C)c3C)cc12 [Example 50, 1-(5-(3,4-difluoro-2-(2-(1,3,5-trimethyl-1H-pyrazol-4-yl)ethoxy)phenyl)-1-methyl-1H-indazol-3-yl)-N-methylmethanamine] | – | inhibit HRV16 production in a dose-dependent manner | without affecting cell viability | – |
